According to US20240199647A1, “ANTI-VIRAL COMPOUNDS” (Aligos Therapeutics, Inc., priority 2022, published 2024):
Like-named read-outs stand apart in the source and are kept apart here.

Experiments:
[1] = biological target: SARS-Cov-2 3CLpro (Severe acute respiratory syndrome coronavirus 2, UniProt P0DTD1); experiment: biochemical; settings: Table A, class symbols, read-out: SARS-Cov-2 (IC50)
[2] = in vitro; settings: human
[3] = Cytotoxicity in HeLa cells without addition of OC43 virus (in parallel); settings: human, HeLa cells, without OC43 virus
[4] = tested on: human beta-coronavirus OC43; experiment: OC43 Coronavirus Assay in HeLa cells (antiviral, cytopathic effect, cell-titer-glo); type: cell-based; settings: Betacoronavirus 1, OC43, HeLa, Table B; OC43 coronavirus in HeLa cells, class symbols; read-out: EC50
[5] = tested on: SARS-CoV-2 B.1.1.7 lineage; experiment: microbe, parasite or virus in culture; type: cell-based; settings: Severe acute respiratory syndrome coronavirus 2, Table C, SARS-CoV-2 B.1.1.7 in A549-dual_ACE2_TMPRSS2 cells, read-out: A549-dual_ACE2_TMPRSS2 (EC50)

Q: What does the source list for `CN(C(=O)[C@H](CC1CC1)NS(=O)(=O)C1(C)CC1)[C@@H](CC1CC1)C(=O)N1C[C@@]2(C[C@H]1C#N)Oc1cccnc1NC2=O` [Compound 198]?
A: IC50 [1]: < 0.02 µM; CC50 [2]: > 1 µM; CC50 at 6 days [3]: > 10 µM; EC50 [4]: < 0.1 µM; EC50 ([5]; class symbols): 0.1 to 1 µM

Q: Which results are given for `CN(C(=O)[C@H](CC1CC1)NC(=O)C(F)(F)F)[C@@H](CC1CC1)C(=O)N1C[C@@]2(C[C@H]1C#N)Oc1c(F)cc(F)cc1CNC2=O` [Compound 199]?
A: IC50 [1]: < 0.02 µM; CC50 [2]: > 1 µM; CC50 at 6 days [3]: > 10 µM; EC50 [4]: < 0.1 µM; EC50 ([5]; class symbols): 0.1 to 1 µM

Q: What does the source list for `CN(C(=O)[C@@H](Cc1ccc(F)cc1)NC(=O)C(F)(F)F)[C@@H](CC1CC1)C(=O)N1C[C@@]2(C[C@H]1C#N)Oc1cccnc1NC2=O` [Compound 200]?
A: IC50 [1]: < 0.02 µM; CC50 [2]: > 1 µM; CC50 at 6 days [3]: > 10 µM; EC50 [4]: 0.1 to 1 µM; EC50 ([5]; class symbols): < 0.1 µM

Q: For `CN(C(=O)[C@@H](NC(=O)C(F)(F)F)C1CC(F)(F)C1)[C@@H](CC1CC1)C(=O)N1C[C@@]2(C[C@H]1C#N)Oc1cccnc1NC2=O` [Compound 201], which IC50 [1] is on record?
A: The IC50 was 0.02 to 0.2 µM.

Q: What about the CC50 [2] of the same compound?
A: Its CC50 is greater than 1 µM.

Q: And the CC50 at 6 days [3]?
A: The CC50 at 6 days was greater than 10 µM.

Q: And the EC50 [4]?
A: The EC50 was 0.1 to 1 µM.

Q: And the EC50 ([5]; class symbols)?
A: The EC50 was 0.1 to 1 µM.

Q: Which results are given for `CN(C(=O)[C@H](COc1ccccc1)NC(=O)C(F)(F)F)[C@@H](CC1CC1)C(=O)N1C[C@@]2(C[C@H]1C#N)Oc1cccnc1NC2=O` [Compound 202]?
A: IC50 [1]: < 0.02 µM; CC50 [2]: > 1 µM; CC50 at 6 days [3]: > 10 µM; EC50 [4]: 0.1 to 1 µM; EC50 ([5]; cells given as a bound): > 1 µM

Q: What does the source list for `CN(C(=O)[C@H](CC1CCC1)NC(=O)C(F)(F)F)[C@@H](CC1CC1)C(=O)N1C[C@@]2(C[C@H]1C#N)Oc1ncccc1NC2=O` [Compound 203]?
A: IC50 [1]: < 0.02 µM; CC50 [2]: > 1 µM; CC50 at 6 days [3]: > 10 µM; EC50 [4]: < 0.1 µM; EC50 ([5]; class symbols): < 0.1 µM

Q: For `CN(C(=O)[C@H](CC(C)(C)C)NC(=O)C(F)(F)F)[C@@H](CC1CC1)C(=O)N1C[C@@]2(C[C@H]1C#N)Oc1ncccc1NC2=O` [Compound 204], which IC50 [1] is on record?
A: Its IC50 is less than 0.02 µM.

Q: And the CC50 [2]?
A: The CC50 was greater than 1 µM.

Q: What about the CC50 at 6 days [3] of the same compound?
A: Its CC50 at 6 days is greater than 10 µM.

Q: What about the EC50 [4] of the same compound?
A: Its EC50 is less than 0.1 µM.

Q: And the EC50 ([5]; class symbols)?
A: Its EC50 is less than 0.1 µM.

Q: With `CN(C(=O)[C@@H](Cc1ccc(F)cc1)NC(=O)C(F)(F)F)[C@@H](CC1CC1)C(=O)N1C[C@@]2(C[C@H]1C#N)Oc1ncccc1NC2=O` [Compound 205] as the compound, how does the IC50 [1] read?
A: The IC50 was less than 0.02 µM.

Q: And the CC50 [2]?
A: Its CC50 is greater than 1 µM.

Q: And the CC50 at 6 days [3]?
A: Its CC50 at 6 days is greater than 10 µM.

Q: And the EC50 [4]?
A: The EC50 was less than 0.1 µM.

Q: And the EC50 ([5]; class symbols)?
A: Its EC50 is less than 0.1 µM.

Q: For `CN(C(=O)[C@H](CC1(C)CCC1)NC(=O)C(F)(F)F)[C@@H](CC1CC1)C(=O)N1C[C@@]2(C[C@H]1C#N)Oc1ncccc1NC2=O` [Compound 206], which IC50 [1] is on record?
A: The IC50 was less than 0.02 µM.

Q: What about the CC50 [2] of the same compound?
A: The CC50 was greater than 1 µM.

Q: What about the CC50 at 6 days [3] of the same compound?
A: The CC50 at 6 days was greater than 10 µM.

Q: What about the EC50 [4] of the same compound?
A: The EC50 was less than 0.1 µM.

Q: And the EC50 ([5]; class symbols)?
A: Its EC50 is less than 0.1 µM.

Q: With `CN(C(=O)[C@H](CC1CC1)NC(=O)C(F)(F)F)[C@@H](CC1CC1)C(=O)N1C[C@@]2(C[C@H]1C#N)Oc1cc(F)cc(F)c1CNC2=O` [Compound 207] as the compound, how does the IC50 [1] read?
A: Its IC50 is 0.02 to 0.2 µM.

Q: What about the CC50 [2] of the same compound?
A: Its CC50 is greater than 1 µM.

Q: What about the CC50 at 6 days [3] of the same compound?
A: The CC50 at 6 days was greater than 10 µM.

Q: And the EC50 [4]?
A: The EC50 was less than 0.1 µM.

Q: What about the EC50 ([5]; class symbols) of the same compound?
A: The EC50 was less than 0.1 µM.

Q: Which results are given for `CN(C(=O)c1ncc(-c2ccccc2)[nH]1)[C@@H](CC1CC1)C(=O)N1C[C@@]2(C[C@H]1C#N)Oc1cccnc1NC2=O` [Compound 208]?
A: IC50 [1]: 0.02 to 0.2 µM; CC50 [2]: > 1 µM; CC50 at 6 days [3]: > 10 µM; EC50 [4]: 0.1 to 1 µM; EC50 ([5]; class symbols): 0.1 to 1 µM

Q: For `C[C@H](NC(=O)C(F)(F)F)C(=O)N(C)[C@@H](CC1CC1)C(=O)N1C[C@@]2(C[C@H]1C#N)Oc1ncccc1NC2=O` [Compound 209], which IC50 [1] is on record?
A: Its IC50 is less than 0.02 µM.

Q: And the CC50 [2]?
A: Its CC50 is greater than 1 µM.

Q: And the CC50 at 6 days [3]?
A: Its CC50 at 6 days is greater than 10 µM.

Q: What about the EC50 [4] of the same compound?
A: The EC50 was less than 0.1 µM.

Q: What about the EC50 ([5]; class symbols) of the same compound?
A: The EC50 was 0.1 to 1 µM.

Q: What does the source list for `COC(=O)N[C@@H](C)C(=O)N(C)[C@@H](CC1CC1)C(=O)N1C[C@@]2(C[C@H]1C#N)Oc1cccnc1NC2=O` [Compound 213]?
A: IC50 [1]: < 0.02 µM; CC50 [2]: > 1 µM; CC50 at 6 days [3]: > 10 µM; EC50 [4]: < 0.1 µM; EC50 ([5]; class symbols): 0.1 to 1 µM

Q: For `COC(=O)N[C@@H](CC1CC1)C(=O)N(C)[C@@H](CC1CC1)C(=O)N1C[C@@]2(C[C@H]1C#N)Oc1ncccc1NC2=O` [Compound 214], which IC50 [1] is on record?
A: Its IC50 is less than 0.02 µM.

Q: And the CC50 [2]?
A: The CC50 was greater than 1 µM.

Q: And the CC50 at 6 days [3]?
A: The CC50 at 6 days was greater than 10 µM.

Q: What about the EC50 [4] of the same compound?
A: Its EC50 is less than 0.1 µM.

Q: What about the EC50 ([5]; class symbols) of the same compound?
A: Its EC50 is 0.1 to 1 µM.
